# Measurements: paper PMC3731256, “Optimization of Substituted 6-Salicyl-4-Anilinoquinazoline Derivatives as Dual EGFR/HER2 Tyrosine Kinase Inhibitors” (PLoS ONE, 2013)
# Tested on: H1781 cells
# Assay: Antiproliferation WST-1 assay, H1781
# Assay type: cell-based
# Settings: NCI-H1781, NSCLC, HER-2 G776ins V_G/C, lapatinib-resistant
# Procedure: (§1) WST-1 is better than MTT for analyzing cell proliferation, because it can be reduced to soluble formazan by dehydrogenase in mitochondria and has little toxicity to cells. Cell proliferation was determined using WST-1 dye (Beyotime Inst Biotech, China) according to manufacture’s instructions. Brieﬂy, 5 × 10^3 cells per well were seeded in a 96-well plate, grown at 37 ℃ for 24 h, and then placed in serum-starved conditions for a further 6 h. Subsequently, cells were treated with compounds (Table 1) at increasing concentrations in the presence of 10% FBS for 24 or 48h. After 10 µL WST-1 dye was added to each well, cells were incubated at 37 ℃ for 2 h and the absorbance was ﬁnally determined at 450 nm using a microplate reader.
row,IC50 [nM],Compound
1,2100 ± 34,"CS(=O)(=O)CCNCc1ccc(-c2ccc3ncnc(Nc4ccc(OCc5cccc(F)c5)c(Cl)c4)c3c2)o1 [Lapatinib, reference compound]"

# Tested on: A431 cells
# Assay: Antiproliferation WST-1 assay, A431
# Assay type: cell-based, human
# Settings: Homo sapiens, A-431, WST-1 assay; A431, overexpression of EGFR; read-out: Cellular IC50, A431
# Procedure: as §1
row,Compound,IC50 [nM]
1,"O=C(Nc1ccc2ncnc(Nc3cccc(Cl)c3)c2c1)c1ccccc1O [Compound 22, N-(4-(3-chlorophenylamino)quinazolin-6-yl)-2-hydroxybenzamide]",740 ± 6
2,"Oc1ccc(Cl)cc1CNc1ccc2ncnc(Nc3cccc(Cl)c3)c2c1 [Compound 13, 4-chloro-2-((4-(3-chlorophenylamino)quinazolin-6-ylamino)methyl)phenol]",< 1000
3,"Oc1c(Br)cc(Br)cc1CNc1ccc2ncnc(Nc3cccc(Br)c3)c2c1 [Compound 12, 2,4-dibromo-6-((4-(3-bromophenylamino)quinazolin-6-ylamino)methyl)phenol]",< 1000
4,"Oc1c(Cl)cc(Cl)cc1CNc1ccc2ncnc(Nc3cccc(Cl)c3)c2c1 [Compound 14, 2,4-dichloro-6-((4-(3-chlorophenylamino)quinazolin-6-ylamino)methyl)phenol]",920 ± 62

# Same assay, conditions: WST-1 assay; A431, overexpression of EGFR; read-out: Cellular IC50, A431
row,Compound,IC50 [nM]
1,"Oc1ccc(Cl)cc1CNc1ccc2ncnc(Nc3cccc(Cl)c3)c2c1 [Compound 13, 4-chloro-2-((4-(3-chlorophenylamino)quinazolin-6-ylamino)methyl)phenol]",1260 ± 51
2,"Oc1c(Br)cc(Br)cc1CNc1ccc2ncnc(Nc3cccc(Br)c3)c2c1 [Compound 12, 2,4-dibromo-6-((4-(3-bromophenylamino)quinazolin-6-ylamino)methyl)phenol]",1140 ± 36

# Tested on: A549 cells
# Assay: Antiproliferation WST-1 assay, A549
# Assay type: cell-based, human
# Settings: Homo sapiens, A549, read-out: Cellular IC50, A549
# Procedure: as §1
row,IC50 [nM],Compound
1,1120 ± 22,"CS(=O)(=O)CCNCc1ccc(-c2ccc3ncnc(Nc4ccc(OCc5cccc(F)c5)c(Cl)c4)c3c2)o1 [Lapatinib, reference compound]"

# Same assay, conditions: WST-1 assay; A549 carcinomic human alveolar basal epithelial cell; read-out: Cellular IC50, A549
row,Compound,IC50 [nM]
1,"O=C(Nc1ccc2ncnc(Nc3cccc(Cl)c3)c2c1)c1ccccc1O [Compound 22, N-(4-(3-chlorophenylamino)quinazolin-6-yl)-2-hydroxybenzamide]",1390 ± 54
2,"Oc1ccc(Cl)cc1CNc1ccc2ncnc(Nc3cccc(Cl)c3)c2c1 [Compound 13, 4-chloro-2-((4-(3-chlorophenylamino)quinazolin-6-ylamino)methyl)phenol]",2170 ± 49
3,"Oc1c(Br)cc(Br)cc1CNc1ccc2ncnc(Nc3cccc(Br)c3)c2c1 [Compound 12, 2,4-dibromo-6-((4-(3-bromophenylamino)quinazolin-6-ylamino)methyl)phenol]",1820 ± 62
4,"Oc1c(Cl)cc(Cl)cc1CNc1ccc2ncnc(Nc3cccc(Cl)c3)c2c1 [Compound 14, 2,4-dichloro-6-((4-(3-chlorophenylamino)quinazolin-6-ylamino)methyl)phenol]",1590 ± 38

# Tested on: MCF-7 cells
# Assay: Antiproliferation WST-1 assay, MCF-7
# Assay type: cell-based, human
# Settings: Homo sapiens, MCF7, WST-1 assay; MCF-7 breast cancer, Her2/neu overexpression; read-out: Cellular IC50, MCF-7
# Procedure: as §1
row,Compound,IC50 [nM]
1,"O=C(Nc1ccc2ncnc(Nc3cccc(Cl)c3)c2c1)c1ccccc1O [Compound 22, N-(4-(3-chlorophenylamino)quinazolin-6-yl)-2-hydroxybenzamide]",610 ± 5
2,"Oc1ccc(Cl)cc1CNc1ccc2ncnc(Nc3cccc(Cl)c3)c2c1 [Compound 13, 4-chloro-2-((4-(3-chlorophenylamino)quinazolin-6-ylamino)methyl)phenol]",< 1000
3,"Oc1c(Br)cc(Br)cc1CNc1ccc2ncnc(Nc3cccc(Br)c3)c2c1 [Compound 12, 2,4-dibromo-6-((4-(3-bromophenylamino)quinazolin-6-ylamino)methyl)phenol]",< 1000
4,"Oc1c(Cl)cc(Cl)cc1CNc1ccc2ncnc(Nc3cccc(Cl)c3)c2c1 [Compound 14, 2,4-dichloro-6-((4-(3-chlorophenylamino)quinazolin-6-ylamino)methyl)phenol]",800 ± 5

# Same assay, conditions: Homo sapiens, MCF7, read-out: Cellular IC50, MCF-7
row,IC50 [nM],Compound
1,210 ± 3,"CS(=O)(=O)CCNCc1ccc(-c2ccc3ncnc(Nc4ccc(OCc5cccc(F)c5)c(Cl)c4)c3c2)o1 [Lapatinib, reference compound]"

# Same assay, conditions: WST-1 assay; MCF-7 breast cancer, Her2/neu overexpression; read-out: Cellular IC50, MCF-7
row,Compound,IC50 [nM]
1,"Oc1ccc(Cl)cc1CNc1ccc2ncnc(Nc3cccc(Cl)c3)c2c1 [Compound 13, 4-chloro-2-((4-(3-chlorophenylamino)quinazolin-6-ylamino)methyl)phenol]",920 ± 12
2,"Oc1c(Br)cc(Br)cc1CNc1ccc2ncnc(Nc3cccc(Br)c3)c2c1 [Compound 12, 2,4-dibromo-6-((4-(3-bromophenylamino)quinazolin-6-ylamino)methyl)phenol]",1070 ± 16

# Tested on: not given
# Assay: not given
# Settings: not given
row,Compound,melting point [°C]
1,"O=C(Nc1ccc2ncnc(Nc3cccc(Cl)c3)c2c1)c1ccccc1O [Compound 22, N-(4-(3-chlorophenylamino)quinazolin-6-yl)-2-hydroxybenzamide]",117 to 120
2,"Oc1ccc(Cl)cc1CNc1ccc2ncnc(Nc3cccc(Cl)c3)c2c1 [Compound 13, 4-chloro-2-((4-(3-chlorophenylamino)quinazolin-6-ylamino)methyl)phenol]",238 to 240
3,"Oc1c(Br)cc(Br)cc1CNc1ccc2ncnc(Nc3cccc(Br)c3)c2c1 [Compound 12, 2,4-dibromo-6-((4-(3-bromophenylamino)quinazolin-6-ylamino)methyl)phenol]",169 to 171
4,"Oc1c(Cl)cc(Cl)cc1CNc1ccc2ncnc(Nc3cccc(Cl)c3)c2c1 [Compound 14, 2,4-dichloro-6-((4-(3-chlorophenylamino)quinazolin-6-ylamino)methyl)phenol]",211 to 213

# Target: T1, human EGFR (Homo sapiens, UniProt P00533)
# T1 construct: the cytoplasmic domain (amino acids 669-1210) of human EGFR; FLAG (DYKDDDD) (N); made in house
# T1 sequence (P00533 669-1210): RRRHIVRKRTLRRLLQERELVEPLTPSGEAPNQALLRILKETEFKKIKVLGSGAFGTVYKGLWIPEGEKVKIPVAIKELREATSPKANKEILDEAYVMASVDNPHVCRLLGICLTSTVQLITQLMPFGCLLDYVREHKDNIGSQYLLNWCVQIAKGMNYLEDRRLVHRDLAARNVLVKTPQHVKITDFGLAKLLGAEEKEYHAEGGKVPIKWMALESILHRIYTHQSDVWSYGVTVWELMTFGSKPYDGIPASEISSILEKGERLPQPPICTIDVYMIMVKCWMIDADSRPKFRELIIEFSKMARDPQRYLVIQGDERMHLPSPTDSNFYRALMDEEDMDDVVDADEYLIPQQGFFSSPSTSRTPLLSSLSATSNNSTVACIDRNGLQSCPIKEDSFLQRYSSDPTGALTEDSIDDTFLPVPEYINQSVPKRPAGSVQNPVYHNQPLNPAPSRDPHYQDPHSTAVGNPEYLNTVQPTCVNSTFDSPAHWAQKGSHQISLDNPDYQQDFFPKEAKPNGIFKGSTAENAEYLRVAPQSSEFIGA
# Assay: EGFR kinase assay ([γ-32P] ATP, poly-Glu-Tyr)
# Assay type: biochemical
# Settings: phosphorylation of poly-Glu-Tyr copolymer; mean, >1 determination; read-out: Enzyme activity IC50 against EGFR kinase
# Procedure: (§2) The expressed HER2 kinase and EGFR kinase were purified by anti-FLAG M2 affinity gel (Sigma-Aldrich, USA). The HER2 and EGFR kinase assays were performed using radiolabeled [γ-^32P] ATP (GEHealthcare, USA) in 96-well plates. The kinase reactions were performed in 50 mmol/L Tris-HCl, pH7.5, 5 mmol/L MnCl2, 0.01% Tween-20 and 2 mmol/L DTT containing 0.9 μCi of [γ-^32P] ATP per reaction, 50 μmol/L ATP, 5 μg/mL poly-Glu-Tyr (4:1) and 0.25 μg/mL of purified Her2 or EGFR cytoplasmic domain in a total volume of 50 μL. […] Kinase reactions were initiated by adding ATP. After the kinase reaction incubated for 10 minutes at room temperature, reactions were terminated by the addition of 10% (final concentration) trichloroacetic acid. The [γ-^32P]-phosphorylated proteins were filtered in a harvest plate (Millipore, USA) with a cell harvester (PerkinElmer, USA) and washed free of [γ-^32P] ATP with 3% phosphoric acid. The plates were dried, followed by the addition of 25 μL of MicroScintO (PerkinElmer, USA). Radioactivity was counted by a Topcount scintillation counter (PerkinElmer, USA).
row,Compound,IC50 [nM]
1,"O=C(Nc1ccc2ncnc(Nc3cccc(Cl)c3)c2c1)c1ccccc1O [Compound 22, N-(4-(3-chlorophenylamino)quinazolin-6-yl)-2-hydroxybenzamide]",160 ± 7
2,"Oc1ccc(Cl)cc1CNc1ccc2ncnc(Nc3cccc(Cl)c3)c2c1 [Compound 13, 4-chloro-2-((4-(3-chlorophenylamino)quinazolin-6-ylamino)methyl)phenol]",830 ± 65
3,"Oc1c(Br)cc(Br)cc1CNc1ccc2ncnc(Nc3cccc(Br)c3)c2c1 [Compound 12, 2,4-dibromo-6-((4-(3-bromophenylamino)quinazolin-6-ylamino)methyl)phenol]",950 ± 72
4,"Oc1c(Cl)cc(Cl)cc1CNc1ccc2ncnc(Nc3cccc(Cl)c3)c2c1 [Compound 14, 2,4-dichloro-6-((4-(3-chlorophenylamino)quinazolin-6-ylamino)methyl)phenol]",650 ± 9

# Tested on: H1975 cells
# Assay: Antiproliferation WST-1 assay, H1975
# Assay type: cell-based
# Settings: Homo sapiens, NCI-H1975, NSCLC, EGFR L858R/T790M
# Procedure: as §1
row,IC50 [nM],Compound
1,3900 ± 419,"CS(=O)(=O)CCNCc1ccc(-c2ccc3ncnc(Nc4ccc(OCc5cccc(F)c5)c(Cl)c4)c3c2)o1 [Lapatinib, reference compound]"

# Tested on: MDA-MB-453 cells
# Assay: Antiproliferation WST-1 assay, MDA-MB-453
# Assay type: cell-based
# Settings: Homo sapiens, breast cancer, HER-2++, PTEN deficiency
# Procedure: as §1
row,IC50 [nM],Compound
1,720 ± 23,"CS(=O)(=O)CCNCc1ccc(-c2ccc3ncnc(Nc4ccc(OCc5cccc(F)c5)c(Cl)c4)c3c2)o1 [Lapatinib, reference compound]"

# Target: T2, human HER2 (Homo sapiens, UniProt P04626)
# T2 construct: The cytoplasmic domain (amino acids 676-1255) of human HER2; FLAG (DYKDDDD) (N); made in house
# T2 sequence (P04626 676-1255): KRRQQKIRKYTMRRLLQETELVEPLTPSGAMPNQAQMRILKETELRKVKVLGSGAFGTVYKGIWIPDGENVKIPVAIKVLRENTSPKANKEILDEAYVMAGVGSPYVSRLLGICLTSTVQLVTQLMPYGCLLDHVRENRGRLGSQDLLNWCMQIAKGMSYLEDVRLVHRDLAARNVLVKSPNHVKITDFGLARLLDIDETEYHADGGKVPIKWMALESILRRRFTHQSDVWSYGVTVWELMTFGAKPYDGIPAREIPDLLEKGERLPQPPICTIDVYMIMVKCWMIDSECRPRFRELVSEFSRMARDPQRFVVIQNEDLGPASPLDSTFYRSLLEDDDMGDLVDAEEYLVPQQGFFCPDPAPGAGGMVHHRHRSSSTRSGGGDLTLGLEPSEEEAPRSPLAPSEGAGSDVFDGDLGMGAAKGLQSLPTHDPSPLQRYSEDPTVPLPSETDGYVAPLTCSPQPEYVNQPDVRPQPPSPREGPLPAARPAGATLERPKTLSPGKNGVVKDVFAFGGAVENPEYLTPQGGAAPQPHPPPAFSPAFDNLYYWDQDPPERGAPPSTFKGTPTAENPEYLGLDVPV
# Assay: HER2 kinase assay ([γ-32P] ATP, poly-Glu-Tyr)
# Assay type: biochemical
# Settings: phosphorylation of poly-Glu-Tyr copolymer; mean, >1 determination; read-out: Enzyme activity IC50 against HER2 kinase
# Procedure: as §2
row,Compound,IC50 [nM]
1,"O=C(Nc1ccc2ncnc(Nc3cccc(Cl)c3)c2c1)c1ccccc1O [Compound 22, N-(4-(3-chlorophenylamino)quinazolin-6-yl)-2-hydroxybenzamide]",840 ± 3
2,"Oc1ccc(Cl)cc1CNc1ccc2ncnc(Nc3cccc(Cl)c3)c2c1 [Compound 13, 4-chloro-2-((4-(3-chlorophenylamino)quinazolin-6-ylamino)methyl)phenol]",2300 ± 34
3,"Oc1c(Br)cc(Br)cc1CNc1ccc2ncnc(Nc3cccc(Br)c3)c2c1 [Compound 12, 2,4-dibromo-6-((4-(3-bromophenylamino)quinazolin-6-ylamino)methyl)phenol]",980 ± 2
4,"Oc1c(Cl)cc(Cl)cc1CNc1ccc2ncnc(Nc3cccc(Cl)c3)c2c1 [Compound 14, 2,4-dichloro-6-((4-(3-chlorophenylamino)quinazolin-6-ylamino)methyl)phenol]",920 ± 9
